The record followed here is patent publication US11684638B2, “Targeted delivery system, system components, and methods” (REGENTS OF THE UNIVERSITY OF MINNESOTA, priority 2016, dated 2023).

The term IC50 denotes the concentration that gives 50% inhibition. A higher IC50 goes with weaker potency in that assay.

Data set [1] deals with MSCs.
Experimental: Various Ac4ManNAz concentrations were evaluated as follows. MSCs were seeded onto 96-well plate at a density of 1.5×10^3 cells/well in 150 μL of MSCM supplemented with 0, 1 μM, 5 μM, 10 μM, 20 μM, 50 μM, or 100 μM final concentration of Ac4ManNAz. After three days of incubation, the cells were washed twice with DPBS and treated with sulforhodamine B dibenzocyclooctyl (DBCO-sulforhodamine B) (20 μM final concentration) for one hour. Cells were rinsed five times with DPBS and images were taken using a fluorescence microscope. For quantitative analysis, cells treated with Ac4ManNAz were stained with DBCO-carboxyrhodamine and the fluorescence intensity (λex: 485 and λem: 528 nm) was measured using plate reader (FLx800 microplate fluorescence reader, BioTek Instruments, Inc., Winooski, Vt., USA).
Similarly, various Ac4ManNAz incubation times were evaluated by culturing MSCs in 20 μM Ac4ManNAz for different incubation times. The cells were treated as before for microscopy or quantitation of available azide groups. The treatments were staggered to perform the final analysis at the same time to maintain the cell number at the time of analysis.
The subject of data set [2] is MSCs. As to the kind of experiment: MSC cell viability, MTS assay. Type of data set: cell-based, human. The protocol:
Cell viability was determined by MTS assay at 3 days, 5 days, and 7 days. After incubation for the designated time period, Ac4ManNAz-containing medium was exchanged with 500 μL of fresh growth medium and 100 μL of the MTS/PMS solution was added to each well. Cells were further incubated for one hour at 37° C. and soluble formazan produced by the live cells was measured at 490 nm using a microplate reader. Cells without Ac4ManNAz treatment were used as a control.
(In general: Tetrazolium assays rely on reduction of a dye to a coloured formazan, in cell work by metabolically active cells.)

In data set [3] the test system is subcutaneous A549-Luc tumors injected with MSC-Az or control MSC. As to the kind of experiment: In vivo click chemistry with intravenous DBCO-Cy5.5. Also on record: species or system athymic nude mice. The protocol: A549-Luc lung tumors were developed in athymic nude mice such that each animal has two tumors, one on each side of the abdomen. When the tumors reached about 100 mm^3, the animals received intratumoral injection (5×10^5 cells/100 μL) of control MSCs in one tumor and MSC-Az in the other tumor of the same animal. One hour following MSC injection, 5 μg of DBCO-Cy5.5 in 100 μL DPBS was injected intravenously per mice. DBCO-Cy5.5 binding to MSC-Az was monitored by imaging at different time intervals (0.5 hour, 1 hour, 5 hours, or 24 hours) using an IVIS Spectrum live animal imager (Xenogen Corp., Alameda, Calif.).

Data set [4] has as its system platinum-resistant C200 ovarian cancer cells. As to the kind of experiment: Cytotoxicity in co-culture […] assay (FIG. 11). Type of data set: cell-based. The protocol:
FIG. 11. IC50 of glycoengineered MSCs in platinum-resistant C200 ovarian cancer cells in co-culture using […] assay (Corning, Inc., Tewksbury, Mass.). The cytotoxic potential of glycoengineered MSCs was determined by co-culturing with C200 cells using a […] assay at 72 hours. For cytotoxicity assessment, C200 cells (20,000/well) were seeded in lower chamber of 24 well […] plate with different concentrations of glycoengineered MSCs in upper chamber. […] However, when incubated at 1:1 ratio of C200 to glycoengineered-MSCs, 75% cytotoxicity was observed.

The subject of data set [5] is orthotopic ovarian tumors. As to the kind of experiment: Antitumor efficacy of glycoengineered MSC pre-incubated with DBCO-functionalized paclitaxel nanoparticles (FIG. 10). It is filed as in vivo, mice. The conditions noted are these: Kaplan-Meier; intraperitoneal; 2×10^6 MSC-Az; ABRAXANE at 40 mg/kg paclitaxel on day 0, 4, 8. As to the method: FIG. 10. Antitumor efficacy of glycoengineered MSC pre-incubated with DBCO-functionalized paclitaxel nanoparticles.
Saline-treated animals were used as […] control.

Consider `CC(=O)OC[C@H]1OC(OC(C)=O)[C@@H](NC(=O)CN=[N+]=[N-])[C@@H](OC(C)=O)[C@@H]1OC(C)=O` (some centres unmarked) [Ac4ManNAz, N-azidoacetylmannosamine-tetraacylated], for which, in the data set on MSCs [1] (20 μM in culture media), the “azide expression on MSC surface by fluorophore labeling” value is on record as “highest expression levels”. Besides, in the data set with MSCs [1] (three days of incubation), the “surface coverage of azide groups” value was “highest surface coverage of azide groups”. In addition, the “cell viability of MSCs” value with MSCs [2] (100 μM after five days of incubation) is on record as “reduced”. Also, in the data set on MSCs [2] (up to 50 μM for seven days), the “viability of MSCs” value is recorded as “unaffected”.
Consider `CCN1/C(=C/C=C/C=C/C2=[N+](CCCCCC(=O)NCCC(=O)N3Cc4ccccc4C#Cc4ccccc43)c3ccc4c(S(=O)(=O)[O-])cc(S(=O)(=O)O)cc4c3C2(C)C)C(C)(C)c2c1ccc1c(S(=O)(=O)O)cc(S(=O)(=O)O)cc21` [DBCO-Cy5.5], for which, in data set [3] (24 hours post injection), the “MSC-Az associated fluorescence in tumor” value is listed as “found even at 24 hours”. Moreover, the “fluorescent label in tumors” value in data set [3] (one hour post intravenous dosing) is given as “detected only in the tumors injected with MSC-Az”.
`CC(=O)O[C@H]1C(=O)[C@@]2(C)[C@H]([C@H](OC(=O)c3ccccc3)[C@]3(O)C[C@H](OC(=O)[C@H](O)[C@@H](NC(=O)c4ccccc4)c4ccccc4)C(C)=C1C3(C)C)[C@]1(OC(C)=O)CO[C@@H]1C[C@@H]2O` [PTX solution, paclitaxel] returned an IC50 in data set [4] of 4.16 nM. In data set [5], this compound returned a median survival of 50 days.
